Experimental data reported in patent US8906928B2, “Substituted pyrazolo-pyrrolo-pyridine-dione compounds” (ArQule, Inc., priority 2009, dated 2014).

Tests used:
Assay type in all cases: cell-based
[1] = tested on: DLD-1; assay: MTS assay (cell growth inhibition), DLD-1; conditions: DLD-1 cells, 72 hours incubation with test compound; concentration not given
Protocol: (§1) Cells were maintained at 37° C., 5% CO2 in DMEM media supplemented with 1% fetal bovine serum, penicillin/streptomycin and fungizone (Invitrogen). Cells were seeded into 96-well tissue culture plates at 3000 per well and cultured at 37° C. for 18 hours. Test compounds were dissolved and diluted to 300× in DMSO then diluted 1:40 in DMEM. Cells were incubated with test compounds for 72 hours followed by incubation with tetrazolium compound (3-(4,5-dimethylthiazol-2-yl)-5-(3-carboxymethoxyphenyl)-2-(4-sulfophenyl)-2H-tetrazolium, inner salt; MTS) and the electron coupling reagent, phenazine methosulfate (PMS) for 4 hours. […] The ability of compounds to inhibit cell growth in this assay is correlated with the reduction of dehydrogenase enzyme activity found in metabolically active cells. The measurement of the absorbance of the formazan was assessed using an ENVISION™ (Perkin Elmer) microplate reader at 492 nm. The calculated IC50 value is the concentration of the test compound that causes a 50% decrease in the absorbance.

[2] = tested on: Kato III; assay: MTS assay (cell growth inhibition), Kato III; conditions: Kato III cells, 72 hours incubation with test compound; concentration not given
Protocol: as §1

[3] = tested on: MDA-MB; assay: MTS assay (cell growth inhibition), MDA-MB; conditions: MDA-MB cells, 72 hours incubation with test compound; concentration not given
Protocol: as §1

[4] = tested on: NCI-H1299; assay: MTS assay (cell growth inhibition), NCI-H1299; conditions: NCI-H1299 cells, 72 hours incubation with test compound; concentration not given
Protocol: as §1

[5] = tested on: PACA-2; assay: MTS assay (cell growth inhibition), PACA-2; conditions: PACA-2 cells, 72 hours incubation with test compound; concentration not given
Protocol: as §1

[6] = tested on: PC-3; assay: MTS assay (cell growth inhibition), PC-3; conditions: PC-3 cells, 72 hours incubation with test compound; concentration not given
Protocol: as §1

SMILES	MTS CELL KILL DATA (% INHIBITION) DLD-1 [1]	MTS CELL KILL DATA (% INHIBITION) Kato III [2]	MTS CELL KILL DATA (% INHIBITION) MDA-MB [3]	MTS CELL KILL DATA (% INHIBITION) NCI-H1299 [4]	MTS CELL KILL DATA (% INHIBITION) PACA-2 [5]	MTS CELL KILL DATA (% INHIBITION) PC-3 [6]
Cc1ccc(CCN2C(=O)c3cnc4[nH]ncc4c3C2=O)cc1 [Example 69, 7-[2-(4-methylphenyl)ethyl]pyrazolo[3,4-b]pyrrolo[3,4-d]pyridine-6,8(3H,7H)-dione]	C (C = <50% INHIBITION)	C (C = <50% INHIBITION)	C (C = <50% INHIBITION)	C (C = <50% INHIBITION)	C (C = <50% INHIBITION)	C (C = <50% INHIBITION)
O=C1c2cnc3[nH]ncc3c2C(=O)N1Cc1ccccc1I [Example 111, 7-(2-iodobenzyl)pyrazolo[3,4-b]pyrrolo[3,4-d]pyridine-6,8(3H,7H)-dione]	C (C = <50% INHIBITION)	C (C = <50% INHIBITION)	C (C = <50% INHIBITION)	C (C = <50% INHIBITION)	C (C = <50% INHIBITION)	C (C = <50% INHIBITION)
Cc1ccc(Cl)c(CN2C(=O)c3cnc4[nH]ncc4c3C2=O)c1F [Example 19, 7-(6-chloro-2-fluoro-3-methylbenzyl)pyrazolo[3,4-b]pyrrolo[3,4-d]pyridine-6,8(3H,7H)-dione]	C (C = <50% INHIBITION)	A (A = 80-100% INHIBITION)	B (B = 50-79% INHIBITION)	C (C = <50% INHIBITION)	C (C = <50% INHIBITION)	A (A = 80-100% INHIBITION)
O=C1c2cnc3[nH]ncc3c2C(=O)N1CCCc1cccnc1 [Example 87, 7-(3-pyridin-3-ylpropyl)pyrazolo[3,4-b]pyrrolo[3,4-d]pyridine-6,8(3H,7H)-dione]	C (C = <50% INHIBITION)	C (C = <50% INHIBITION)	C (C = <50% INHIBITION)	C (C = <50% INHIBITION)	C (C = <50% INHIBITION)	C (C = <50% INHIBITION)
O=C1c2cnc3[nH]ncc3c2C(=O)N1Cc1cc(Cl)ccc1Cl [Example 61, 7-(2,5-dichlorobenzyl)pyrazolo[3,4-b]pyrrolo[3,4-d]pyridine-6,8(3H,7H)-dione]	B (B = 50-79% INHIBITION)	B (B = 50-79% INHIBITION)	A (A = 80-100% INHIBITION)	C (C = <50% INHIBITION)	C (C = <50% INHIBITION)	C (C = <50% INHIBITION)
O=C1c2cnc3[nH]ncc3c2C(=O)N1Cc1cccc(Br)c1 [Example 104, 7-(3-bromobenzyl)pyrazolo[3,4-b]pyrrolo[3,4-d]pyridine-6,8(3H ,7H)-dione]	A (A = 80-100% INHIBITION)	A (A = 80-100% INHIBITION)	A (A = 80-100% INHIBITION)	A (A = 80-100% INHIBITION)	A (A = 80-100% INHIBITION)	A (A = 80-100% INHIBITION)
Cc1cccc(OCCN2C(=O)c3cnc4[nH]ncc4c3C2=O)c1 [Example 13, 7-[2-(3-methylphenoxy)ethyl]pyrazolo[3,4-b]pyrrolo[3,4-d]pyridine-6,8(3H,7H)-dione]	C (C = <50% INHIBITION)	A (A = 80-100% INHIBITION)	A (A = 80-100% INHIBITION)	B (B = 50-79% INHIBITION)	C (C = <50% INHIBITION)	A (A = 80-100% INHIBITION)
